Key:
Plasmodium falciparum [1] = assay: NOVARTIS: Inhibition of Plasmodium falciparum 3D7 (drug-susceptible) proliferation in erythrocyte-based infection assay; format: functional, organism-based; settings: Plasmodium falciparum, 3D7
Plasmodium falciparum [2] = assay: NOVARTIS: Inhibition of Plasmodium falciparum W2 (drug-resistant) proliferation in erythrocyte-based infection assay; format: functional, organism-based; settings: Plasmodium falciparum, W2; read-out: EC50
[3] = NOVARTIS: Cytotoxicity against human hepatocellular carcinoma cell line (Huh7); format: toxicity, cell-based, Huh-7; settings: Huh7 cells (hepatocellular carcinoma cell line)

Row | SMILES | EC50 (Plasmodium falciparum [1]) | EC50 (Plasmodium falciparum [2]) | CC50 [3]
1 | OCC[n+]1c2ccccc2nc2ccc(N3CCOCC3)cc21.[O-][Cl+3]([O-])([O-])[O-] | 0.243 µM | 0.0564 µM | 35 µM
2 | CCCCC(=O)N(C/C=C/c1ccccc1OC)CCN1CCN(C(=O)NC23CC4CC(CC(C4)C2)C3)CC1 | 1.45 µM | 0.313 µM | > 10 µM
3 | CCN1CCN(c2cc(C)c3cc(NC(=O)c4ccc(OC)c([N+](=O)[O-])c4)ccc3n2)CC1 | 0.273 µM | 0.344 µM | 15.4 µM
4 | COc1cccc(-c2ccc(O)c(CN3CCCC(C)C3)c2)n1 (centres undefined) | 0.543 µM | 0.0679 µM | > 10 µM
5 | CC(=O)OCC(=O)[C@@]1(O)CCC2C3CCC4=CC(=O)CC[C@]4(C)C3[C@@H](O)C[C@@]21C (some centres undefined) | > 1.25 µM | < 0.023 µM | > 10 µM
6 | CC(C)CC(N)C(=O)N1CCn2c(nc(-c3ccccc3)c2Nc2ccc3c(c2)OCO3)C1 (centres undefined) | 0.119 µM | 0.122 µM | > 79.5 µM
7 | Cc1ccccc1C=NNc1nc2ccccc2[nH]1 | 0.605 µM | 0.249 µM | > 100 µM
8 | CCOC(=O)c1c(C)n(-c2ccccc2)c2ccc(OC(=O)C3CC3)cc12 | 0.749 µM | 1.72 µM | > 100 µM
9 | CSc1nc2nc(C)c(Cc3cccc(C(F)(F)F)c3)c(C)n2n1 | 0.27 µM | 0.224 µM | > 100 µM
10 | Nc1cc2c(cc1Br)CCCC2 | > 1.03 µM | > 1.47 µM | > 10 µM
11 | Cc1cc(N2CCN(C)CC2)nc2ccc(NC(=O)Nc3ccccc3Cl)cc12 | 3.1 µM | 2.06 µM | > 100 µM
12 | COc1cc(NC(C)CCCN(Cc2ccccc2OC)C(=O)C(C)C)c2ncccc2c1 (centres undefined) | 0.684 µM | 0.406 µM | > 7.7 µM
13 | Cc1ccn2c(NC(C)(C)CC(C)(C)C)c(-c3ccccc3OC(=O)c3ccc(Cl)cc3)nc2c1 | 1.21 µM | 0.0778 µM | > 8.27 µM
14 | O=C(Nc1ccc2c(c1)OCO2)c1cc2cc(C3(O)CCN(CC4CCCCC4)CC3)ccc2o1 | 0.442 µM | 0.311 µM | > 100 µM
15 | C=CC1CN2CCC1C(C(O)c1ccnc3ccc(OC)cc13)C2 (centres undefined) | 0.00721 µM | 0.0151 µM | > 100 µM
16 | COc1cc(OC)cc(C(=O)Nc2cc(C(=O)N3CCC(Cc4ccccc4)CC3)ccc2N2CC3CC(C2)c2cccc(=O)n2C3)c1 (centres undefined) | 1.87 µM | 0.548 µM | 50.3 µM
17 | CC(=NNC(=N)N)c1ccc(C)cc1 | 2.04 µM | 0.25 µM | 19.3 µM

Row | SMILES | EC50 (Plasmodium falciparum [1]) | EC50 (Plasmodium falciparum [2]) | CC50 [3]
18 | CN1CCN(c2nc(NCCNc3ccc([N+](=O)[O-])cc3)c3ccccc3n2)CC1 | 0.537 µM | 0.424 µM | 19 µM
19 | c1ccc(-c2ccc(CNc3ccc4cn[nH]c4c3)cc2)cc1 | > 1.25 µM | 1.04 µM | > 10 µM
20 | Cc1cc(-c2cnc(C)nc2C2CCN(C(=O)c3ccc4ncccc4c3)CC2)on1 | > 0.917 µM | 0.42 µM | > 11.6 µM
21 | O=C(Nc1ccc(-c2nc3cc(NC(=O)c4ccc(Cl)cc4)ccc3[nH]2)cc1)c1ccc(Cl)cc1 | 0.993 µM | > 12.5 µM | 83.8 µM
22 | CO[C@H]1[C@@H](C)[C@@H]([C@H](C)C2O[C@@]3(CC[C@@](C)([C@H]4CC[C@@](C)([C@@H]5O[C@@H]([C@H]6O[C@](C)(O)[C@H](C)C[C@@H]6C)C[C@@H]5C)O4)O3)C[C@H](O)[C@@H]2C)O[C@@](O)([C@H](C)C(=O)O)[C@H]1C (some centres undefined) | 1.14 µM | 0.938 µM | > 10 µM
23 | COc1cc(C=C(C#N)c2nc3ccccc3[nH]2)ccc1OCc1ccccc1 | 0.766 µM | 1.59 µM | > 100 µM
24 | COC(=O)c1ccc(C2C3=C(CC(c4ccc(OC)cc4)CC3=O)Nc3ccccc3N2C(=O)c2ccccc2)cc1 (centres undefined) | 0.427 µM | 0.368 µM | > 100 µM
25 | Cc1ncc([N+](=O)[O-])n1CCOC(=O)NC(Nc1ccc(Br)cc1)C(Cl)(Cl)Cl (centres undefined) | 0.229 µM | 0.152 µM | > 100 µM
26 | CCc1noc(C)c1C(=O)NCCN1Cc2ccccc2OC(c2ccsc2)C1 (centres undefined) | 0.827 µM | 0.615 µM | > 100 µM
27 | Oc1ccc(-c2ccccc2)cc1CNC1CCCCC1 | 0.982 µM | < 0.0235 µM | > 10 µM
28 | CC(C)CSc1nc2sc3c(c2c(=O)n1-c1ccccc1)CCN(Cc1ccccc1)C3 | 0.945 µM | 0.392 µM | > 100 µM
29 | COc1ccc(C2N=C(N)N=C(N)N2c2ccc(Cl)cc2)cc1OC (centres undefined) | 0.326 µM | > 1.25 µM | > 10 µM
30 | O=C(Cn1cc([N+](=O)[O-])nc1[N+](=O)[O-])N1CCN(c2ccc(F)cc2)CC1 | 1.07 µM | 0.234 µM | 33.6 µM
31 | N=C1NC(=O)/C(=C/C=C/c2ccc([N+](=O)[O-])o2)S1 | 1.08 µM | 0.592 µM | 17.1 µM
32 | CCN(CC)c1ccc(N=Cc2ccc(Sc3nc4ccccc4s3)o2)cc1 | 0.271 µM | 0.0988 µM | 10.8 µM
33 | CC(C)CNc1nc(NCCN2CCCCC2)ncc1C(=O)NCc1ccccc1 | 1 µM | > 1.25 µM | > 10 µM

Source: ChEMBL document CHEMBL1156829 (Proc Natl Acad Sci U S A, 2008)
